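1) Cells in 96-well plates. 2) Compound, 48 h, 5 concentrations. 3) Linear interpolation between surrounding doses. 4) Unreached endpoint = highest concentration. GI50 is the concentration that inhibits growth by half.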 Active and inactive are the calls of the source. Rule as the data show it: active = GI50 up to about 1.1 µM and inactive = higher.
What was measured:
Test in all cases: DTP human tumour cell line panel, 48 h
786-0 = test system: 786-0
A549 = test system: A549
ACHN = test system: ACHN
BT-549 = test system: BT-549
CAKI-1 = test system: CAKI-1
COLO 205 = test system: COLO 205
EKVX = test system: EKVX
HCC 2998 = test system: HCC 2998
HCT-116 = test system: HCT-116
HCT-15 = test system: HCT-15
HL-60 = test system: HL-60
HOP-62 = test system: HOP-62
HOP-92 = test system: HOP-92
HT-29 = test system: HT-29
Hs-578T = test system: Hs-578T
IGROV-1 = test system: IGROV-1
K562 = test system: K562
KM12 = test system: KM12
LOX IMVI = test system: LOX IMVI
M14 = test system: M14
MCF7 = test system: MCF7
MDA-MB-231 = test system: MDA-MB-231
MDA-MB-435 = test system: MDA-MB-435
MDA-N = test system: MDA-N
MOLT-4 = test system: MOLT-4
Malme-3M = test system: Malme-3M
NCI-H226 = test system: NCI-H226
NCI-H23 = test system: NCI-H23
NCI-H460 = test system: NCI-H460
NCI-H522 = test system: NCI-H522
NCI/ADR-RES = test system: NCI/ADR-RES
OVCAR-4 = test system: OVCAR-4
OVCAR-5 = test system: OVCAR-5
OVCAR-8 = test system: OVCAR-8
PC-3 = test system: PC-3
RPMI-8226 = test system: RPMI-8226
RXF 393 = test system: RXF 393
SF-268 = test system: SF-268
SF-295 = test system: SF-295
SF-539 = test system: SF-539
SK-MEL-28 = test system: SK-MEL-28
SK-MEL-2 = test system: SK-MEL-2
SK-MEL-5 = test system: SK-MEL-5
SK-OV-3 = test system: SK-OV-3
SN12C = test system: SN12C
SNB-19 = test system: SNB-19
SNB-75 = test system: SNB-75
SR = test system: SR
SW-620 = test system: SW-620
T47D = test system: T47D
TK-10 = test system: TK-10
U-251 = test system: U-251
UACC-257 = test system: UACC-257
UACC-62 = test system: UACC-62
UO-31 = test system: UO-31
A498 = test system: A498
DU-145 = test system: DU-145
OVCAR-3 = test system: OVCAR-3

COc1ccc2c(c1)N=C1CSC(c3cccc(Br)c3)N1C2 (centres undefined)
GI50 (786-0): 17.4 µM (inactive)
GI50 (A549): 16.6 µM (inactive)
GI50 (ACHN): 13.3 µM (inactive)
GI50 (BT-549): 12.4 µM (inactive)
GI50 (CAKI-1): 6.19 µM (inactive)
GI50 (COLO 205): 17.4 µM (inactive)
GI50 (EKVX): 13.2 µM (inactive)
GI50 (HCC 2998): 6.43 µM (inactive)
GI50 (HCT-116): 10.8 µM (inactive)
GI50 (HCT-15): 6.14 µM
GI50 (HL-60): 9.51 µM (inactive)
GI50 (HOP-62): 22.8 µM (inactive)
GI50 (HOP-92): 16.7 µM (inactive)
GI50 (HT-29): 14.8 µM (inactive)
GI50 (Hs-578T): 26.3 µM (inactive)
GI50 (IGROV-1): 18.6 µM (inactive)
GI50 (K562): 3.85 µM (inactive)
GI50 (KM12): 10.9 µM (inactive)
GI50 (LOX IMVI): 18.5 µM (inactive)
GI50 (M14): 16.6 µM (inactive)
GI50 (MCF7): 6.59 µM (inactive)
GI50 (MDA-MB-231): 17.8 µM (inactive)
GI50 (MDA-MB-435): 10.5 µM (inactive)
GI50 (MDA-N): 11.5 µM (inactive)
GI50 (MOLT-4): 2.99 µM (inactive)
GI50 (Malme-3M): 18 µM (inactive)
GI50 (NCI-H226): 22.9 µM (inactive)
GI50 (NCI-H23): 17.9 µM (inactive)
GI50 (NCI-H460): 7.62 µM (inactive)
GI50 (NCI-H522): 14.4 µM (inactive)
GI50 (NCI/ADR-RES): 6.98 µM (inactive)
GI50 (OVCAR-4): 15.9 µM (inactive)
GI50 (OVCAR-5): 18.8 µM (inactive)
GI50 (OVCAR-8): 23.7 µM (inactive)
GI50 (PC-3): 11.5 µM (inactive)
GI50 (RPMI-8226): 3.72 µM (inactive)
GI50 (RXF 393): 14.6 µM (inactive)
GI50 (SF-268): 28.9 µM (inactive)
GI50 (SF-295): 14.2 µM (inactive)
GI50 (SF-539): 17.9 µM (inactive)
GI50 (SK-MEL-28): 32.8 µM (inactive)
GI50 (SK-MEL-2): 17.6 µM (inactive)
GI50 (SK-MEL-5): 10.4 µM (inactive)
GI50 (SK-OV-3): 21.3 µM (inactive)
GI50 (SN12C): 19.5 µM (inactive)
GI50 (SNB-19): 22.5 µM (inactive)
GI50 (SNB-75): 15.5 µM (inactive)
GI50 (SR): 4.52 µM (inactive)
GI50 (SW-620): 25.5 µM (inactive)
GI50 (T47D): 24 µM (inactive)
GI50 (TK-10): 16 µM (inactive)
GI50 (U-251): 17.5 µM (inactive)
GI50 (UACC-257): 10.5 µM (inactive)
GI50 (UACC-62): 15.2 µM (inactive)
GI50 (UO-31): 12.6 µM (inactive)

CSc1nc(C)cc(Nc2ccc(O)c(CN3CCCCC3)c2)n1
GI50 (786-0): 23.1 µM (inactive)
GI50 (A498): 23.1 µM (inactive)
GI50 (A549): > 100 µM (inactive)
GI50 (ACHN): 83 µM (inactive)
GI50 (BT-549): > 100 µM (inactive)
GI50 (CAKI-1): > 100 µM (inactive)
GI50 (COLO 205): 29 µM (inactive)
GI50 (DU-145): 64.3 µM (inactive)
GI50 (EKVX): 27.5 µM (inactive)
GI50 (HCT-116): 27.8 µM (inactive)
GI50 (HCT-15): 86.3 µM
GI50 (HOP-62): > 100 µM (inactive)
GI50 (HOP-92): 72.4 µM (inactive)
GI50 (HT-29): 20.4 µM (inactive)
GI50 (Hs-578T): > 100 µM (inactive)
GI50 (IGROV-1): 60.5 µM (inactive)
GI50 (K562): 30.6 µM (inactive)
GI50 (KM12): > 100 µM (inactive)
GI50 (LOX IMVI): 33 µM (inactive)
GI50 (M14): 16.3 µM (inactive)
GI50 (MCF7): 67.6 µM (inactive)
GI50 (MDA-MB-435): 57.5 µM (inactive)
GI50 (MDA-N): 28 µM (inactive)
GI50 (MOLT-4): 57.7 µM (inactive)
GI50 (Malme-3M): 48.6 µM (inactive)
GI50 (NCI-H226): 32.4 µM (inactive)
GI50 (NCI-H23): 77.4 µM (inactive)
GI50 (NCI-H522): 72.1 µM (inactive)
GI50 (NCI/ADR-RES): > 100 µM (inactive)
GI50 (OVCAR-3): > 100 µM (inactive)
GI50 (OVCAR-4): > 100 µM (inactive)
GI50 (OVCAR-5): 28.6 µM (inactive)
GI50 (OVCAR-8): > 100 µM (inactive)
GI50 (RPMI-8226): 23.3 µM (inactive)
GI50 (RXF 393): 67.6 µM (inactive)
GI50 (SF-268): > 100 µM (inactive)
GI50 (SF-295): 37.9 µM (inactive)
GI50 (SF-539): 43.3 µM (inactive)
GI50 (SK-MEL-28): 28.8 µM (inactive)
GI50 (SK-MEL-5): 25.3 µM (inactive)
GI50 (SK-OV-3): > 100 µM (inactive)
GI50 (SN12C): 56.6 µM (inactive)
GI50 (SNB-19): > 100 µM (inactive)
GI50 (SNB-75): > 100 µM (inactive)
GI50 (SR): 32.1 µM (inactive)
GI50 (SW-620): 71.9 µM (inactive)
GI50 (T47D): 68.1 µM (inactive)
GI50 (UACC-62): 60.8 µM (inactive)
GI50 (UO-31): 48.1 µM (inactive)

From ChEMBL document CHEMBL1201862, “PubChem BioAssay data set” (2004)
